Assay results taken from patent publication US11773078B2, “Furin inhibitors” (Glaxosmithkline Intellectual Property Development Limited, priority 2018, dated 2023).

What was measured:
[1] = target: T1, Furin (108-574-Tev-Flag-His) enzyme (Homo sapiens, UniProt P09958); experiment: Furin enzyme assay; assay type: biochemical; settings: for IC50: read-out: furin enzyme pIC50 (converted)
T1 construct: Furin (108-574-Tev-Flag-His) enzyme was expressed and purified from CHO cells; TEV cleavage site (C); FLAG (C); His (C); made in house; host or cells: CHO cells
T1 sequence (P09958 108-574): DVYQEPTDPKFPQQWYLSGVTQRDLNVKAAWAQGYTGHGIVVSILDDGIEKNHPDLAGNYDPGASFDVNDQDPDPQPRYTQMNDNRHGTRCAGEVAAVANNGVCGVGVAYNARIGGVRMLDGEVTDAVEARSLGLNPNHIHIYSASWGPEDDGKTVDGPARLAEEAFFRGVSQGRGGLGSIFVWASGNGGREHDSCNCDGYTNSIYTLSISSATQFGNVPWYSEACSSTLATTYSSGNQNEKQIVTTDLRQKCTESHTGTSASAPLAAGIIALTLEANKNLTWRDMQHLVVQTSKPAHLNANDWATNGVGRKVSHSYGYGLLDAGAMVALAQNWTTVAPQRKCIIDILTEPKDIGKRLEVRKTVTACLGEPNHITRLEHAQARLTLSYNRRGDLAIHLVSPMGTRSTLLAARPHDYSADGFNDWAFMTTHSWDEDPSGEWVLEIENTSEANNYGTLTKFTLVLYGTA
How it was run: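 Compounds ran as 11-point threefold dilutions (0.00017–10 μM final) against 40 pM furin, purified from CHO cells, for 2 h at room temperature. Buffer: 100 mM HEPES pH7.5 with 1 mM CaCl2 and 0.005% Triton X-100. Envision readout. Four-parameter curve gives pXC50.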

[2] = target: T2, furin (endogenous protease) in U20S cells (Homo sapiens, UniProt P09958); experiment: Furin cell-based assay (image-based, Golgi-targeted GFP with BMP10 furin/PCSK cleavage site); settings: 24-hour incubation, read-out: furin golgi cell pXC50 (converted);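 further: Read-out is mean GFP fluorescence of Golgi puncta per cell by high-content imaging, retained when furin inhibited, over an eleven-point 0.00017–10 µM series, four-parameter fit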
T2 construct: the endogenous protease cleaves GFP; endogenous in cells; host or cells: U2OS cells transduced with a BacMam reporter
T2 sequence (P09958 108-794): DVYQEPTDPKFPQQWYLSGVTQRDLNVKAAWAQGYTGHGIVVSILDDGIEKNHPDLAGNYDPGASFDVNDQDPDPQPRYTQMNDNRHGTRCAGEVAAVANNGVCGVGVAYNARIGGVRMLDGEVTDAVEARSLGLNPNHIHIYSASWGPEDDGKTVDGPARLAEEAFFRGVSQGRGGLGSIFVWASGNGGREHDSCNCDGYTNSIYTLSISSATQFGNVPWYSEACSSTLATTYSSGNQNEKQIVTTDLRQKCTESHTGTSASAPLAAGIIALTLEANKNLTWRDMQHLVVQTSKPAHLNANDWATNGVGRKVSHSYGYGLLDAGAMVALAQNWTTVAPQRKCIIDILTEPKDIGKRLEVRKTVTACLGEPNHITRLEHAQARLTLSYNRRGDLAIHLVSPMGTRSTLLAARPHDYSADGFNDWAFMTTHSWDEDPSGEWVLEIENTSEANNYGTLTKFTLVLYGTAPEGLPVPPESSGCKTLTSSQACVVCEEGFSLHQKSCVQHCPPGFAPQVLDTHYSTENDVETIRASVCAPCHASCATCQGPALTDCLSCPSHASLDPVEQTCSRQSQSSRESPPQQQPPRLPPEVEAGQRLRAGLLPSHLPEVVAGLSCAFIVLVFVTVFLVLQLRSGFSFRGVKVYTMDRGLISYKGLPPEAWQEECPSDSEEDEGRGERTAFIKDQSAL

Compound	furin enzyme pIC50 [1]	EC50 [2] [nM]	IC50 [1] [nM]
COC(=O)NC(=O)CCN1CCN(c2ccc(Oc3cc(CN4CCC(CNC(C)=O)CC4)cc(-c4cc(Cl)cc(Cl)c4)n3)cn2)CC1 [Example 176, methyl (3-(4-(5-((4-((4-(acetamidomethyl)piperidin-1-yl)methyl)-6-(3,5-dichlorophenyl)pyridin-2-yl)oxy)pyridin-2-yl)piperazin-1-yl)propanoyl)carbamate]	9	3.98	–
O=C(O)CC1CCN(Cc2cc(Oc3cnc(N4CCN(CC(O)CO)CC4)nc3)nc(-c3cc(Cl)cc(Cl)c3)c2)CC1 (stereo not shown) [Example 177, 2-(1-((2-(3,5-dichlorophenyl)-6-((2-(4-(2,3-dihydroxypropyl)piperazin-1-yl)pyrimidin-5-yl)oxy)pyridin-4-yl)methyl)piperidin-4-yl)acetic acid]	9.2	20	–
CC(=O)NCC1CCN(Cc2cc(Oc3ccc(N4CC[N+](C)(O)CC4)nc3)nc(-c3cc(Cl)cc(Cl)c3)c2)CC1 [Example 178, 4-(5-((4-((4-(Acetamidomethyl)piperidin-1-yl)methyl)-6-(3,5-dichlorophenyl)pyridin-2-yl)oxy)pyridin-2-yl)-1-methylpiperazine1-oxide]	8.9	< 2.51	–
CC(=O)NCC1CCN(Cc2cc(Oc3ccc(N4CC[N+](CCO)(CCO)CC4)nc3)nc(-c3cc(Cl)cc(Cl)c3)c2)CC1 [Example 179, 1-(4-(5-((4-((4-(Acetamidomethyl)piperidin-1-yl)methyl)-6-(3,5-dichlorophenyl)pyridin-2-yl)oxy)pyridin-2-yl)-1-(2-hydroxyethyl)piperazin-1-ium-1-yl)-2-hydroxyethan-1-ide]	8.8	12.6	–
CC(=O)NCC1CCN(Cc2cc(Oc3ccc(N4CC[N+](C)(C)CC4)nc3)nc(-c3cc(Cl)cc(Cl)c3)c2)CC1.[Cl-] [Example 181, 4-(5-((4-((4-(Acetamidomethyl)piperidin-1-yl)methyl)-6-(3,5-dichlorophenyl)pyridin-2-yl)oxy)pyridin-2-yl)-1,1-dimethylpiperazin-1-ium chloride]	9	79.4	–
CC(=O)NCC1CCN(Cc2cc(Oc3ccc(N4C[C@@H]5C[C@H]4CN5CCS(C)(=O)=O)nc3)nc(-c3cc(Cl)cc(Cl)c3)c2)CC1 [Example 183, N-((1-((2-(3,5-Dichlorophenyl)-6-((6-((1S,4S)-5-(2-(methylsulfonyl)ethyl)-2,5-diazabicyclo[2.2.1]heptan-2-yl)pyridin-3-yl)oxy)pyridin-4-yl)methyl)piperidin-4-yl)methyl)acetamide]	–	12.6	0.0251
CC(=O)NCC1CCN(Cc2cc(Oc3ccc(N4CC5CCC(C4)N5CCC(=O)O)nc3)nc(-c3cc(Cl)cc(Cl)c3)c2)CC1 [Example 185, 3-(3-(5-((4-((4-(Acetamidomethyl)piperidin-1-yl)methyl)-6-(3,5-dichlorophenyl)pyridin-2-yl)oxy)pyridin-2-yl)-3,8-diazabicyclo[3.2.1]octan-8-yl)propanoic acid]	9.5	31.6	–

The next lines start with the values.

furin enzyme pIC50 [1]	EC50 [2] [nM]	IC50 [1] [nM]	Compound
9.1	39.8	–	CC(=O)NCC1CCN(Cc2cc(Oc3ccc(N4CCN(CCC(=O)O)[C@@H](C)C4)nc3)nc(-c3cc(Cl)cc(Cl)c3)c2)CC1 [Example 186, (S)-3-(4-(5-((4-((4-(acetamidomethyl)piperidin-1-yl)methyl)-6-(3,5-dichlorophenyl)pyridin-2-yl)oxy)pyridin-2-yl)-2-methylpiperazin-1-yl)propanoic acid]
–	79.4	1.26	O=C(O)CC1CCN(Cc2cc(Oc3ccc(N4C[C@@H]5C[C@H]4CN5)nc3)nc(-c3cc(Cl)cc(Cl)c3)c2)CC1 [Example 187, 2-(1-((2-((6-((1S,4S)-2,5-diazabicyclo[2.2.1]heptan-2-yl)pyridin-3-yl)oxy)-6-(3,5-dichlorophenyl)pyridin-4-yl)methyl)piperidin-4-yl)acetic acid]
8.8	12.6	–	CCC(CCN1CCN(c2ccc(Oc3cc(CN4CCC(CNC(C)=O)CC4)cc(-c4cc(Cl)cc(Cl)c4)n3)cn2)CC1)C(=O)O (stereo not shown) [Example 188, 4-(4-(5-((4-((4-(acetamidomethyl)piperidin-1-yl)methyl)-6-(3,5-dichlorophenyl)pyridin-2-yl)oxy)pyridin-2-yl)piperazin-1-yl)-2-ethylbutanoic acid]
8.7	31.6	–	CC(=O)NCC1CCN(Cc2cc(Oc3ccc(N4CCN(CC(C)(C)C(=O)O)CC4)nc3)nc(-c3cc(Cl)cc(Cl)c3)c2)CC1 [Example 189, 3-(4-(5-((4-((4-(acetamidomethyl)piperidin-1-yl)methyl)-6-(3,5-dichlorophenyl)pyridin-2-yl)oxy)pyridin-2-yl)piperazin-1-yl)-2,2-dimethylpropanoic acid]
10.7	158	–	CC(=O)NCC1CCN(Cc2cc(Oc3ccc(N4CCCN(CCC(=O)O)CC4)nc3)nc(-c3cc(Cl)cc(Cl)c3)c2)CC1 [Example 190, 3-(4-(5-((4-((4-(Acetamidomethyl)piperidin-1-yl)methyl)-6-(3,5-dichlorophenyl)pyridin-2-yl)oxy)pyridin-2-yl)-1,4-diazepan-1-yl)propanoic acid]
9.8	39.8	–	CC(=O)NCC1CCN(Cc2cc(Oc3ccc(N4CCN(CCC(=O)O)C(C)(C)C4)nc3)nc(-c3cc(Cl)cc(Cl)c3)c2)CC1 [Example 191, 3-(4-(5-((4-((4-(acetamidomethyl)piperidin-1-yl)methyl)-6-(3,5-dichlorophenyl)pyridin-2-yl)oxy)pyridin-2-yl)-2,2-dimethylpiperazin-1-yl)propanoic acid]
10.4	15.8	–	CC(=O)NCC1CCN(Cc2cc(Oc3ccc(N4CCCNCC4)nc3)nc(-c3cc(Cl)cc(Cl)c3)c2)CC1 [Example 192, N-((1-((2-((6-(1,4-diazepan-1-yl)pyridin-3-yl)oxy)-6-(3,5-dichlorophenyl)pyridin-4-yl)methyl)piperidin-4-yl)methyl)acetamide]
9	3.16	–	CNC1CCN(c2ccc(Oc3cc(CN4CCC(CNC(C)=O)CC4)cc(-c4cc(Cl)cc(Cl)c4)n3)cn2)CC1 [Example 193, N-((1-((2-(3,5-dichlorophenyl)-6-((6-(4-(methylamino)piperidin-1-yl)pyridin-3-yl)oxy)pyridin-4-yl)methyl)piperidin-4-yl)methyl)acetamide]
9.1	3.16	–	CC(=O)NCC1CCN(Cc2cc(Oc3ccc(N4CC5CNCC5C4)nc3)nc(-c3cc(Cl)cc(Cl)c3)c2)CC1 (stereo not shown) [Example 194, N-((1-((2-(3,5-dichlorophenyl)-6-((6-(hexahydropyrrolo[3,4-c]pyrrol-2(1H)-yl)pyridin-3-yl)oxy)pyridin-4-yl)methyl)piperidin-4-yl)methyl)acetamide]
9.2	1	–	CC(=O)NCC1CCN(Cc2cc(Oc3ccc(N4CCNC(CO)C4)nc3)nc(-c3cc(Cl)cc(Cl)c3)c2)CC1 (stereo not shown) [Example 195, N-((1-((2-(3,5-dichlorophenyl)-6-((6-(3-(hydroxymethyl)piperazin-1-yl)pyridin-3-yl)oxy)pyridin-4-yl)methyl)piperidin-4-yl)methyl)acetamide]
